# Data taken from patent publication US7956188B2, “Acetamide compounds as fungicides” (Syngenta Crop Protection, Inc., priority 2004, dated 2011).
row,melting point,SMILES
1,171 to 172 °C,"CSC(Oc1cc(I)c2ncc(Br)cc2c1)C(=O)NC(C)(C)C (stereo not drawn) [12 (62A), 2-(3-bromo-8-iodo-quinolin-6-yloxy)-N-tert-butyl-2-methylsulfanyl-acetamide]"
2,160 to 161 °C,"CSC(Oc1cc(Cl)c2ncc(Br)cc2c1)C(=O)NC(C)(C)C (stereo not drawn) [12 (62), 2-(3-bromo-8-chloro-quinolin-6-yloxy)-N-tert-butyl-2-methylsulfanyl-acetamide]"
3,123 to 125 °C,"CSC(Oc1cc(C)c(Br)c(C)c1)C(=O)NC(C)(C)C (stereo not drawn) [12 (15), 2-(4-bromo-3,5-dimethylphenoxy)-2-methylthio-N-(2-methyl-prop-2-yl)acetamide]"
